Experimental data from PubChem BioAssay AID2060909 (Molecular Pharmacology Branch, DTP, NCI, 2025).

Tested on: 362531-283-R-J2-PDC complex spheroid viability
Assay: Anticancer human tumor 362531-283-R-J2-PDC patient-derived colon adenocarcinoma cell line growth inhibition [RAS]
Settings: for IC50: curve of first compound; for viability, T/C: stronger effect = lower value
How it was run: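 Agents were tested in combination matrices in half-log decrements from a top concentration at or near clinical Cmax (10 microM if undetermined). Targets were multi-cell spheroids of tumour lines plus HUVEC and MSC stromal cells.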
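Note: spheroids exposed to the agents for 7 days before readout.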
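Throughout, for viability, T/C: luminescence viability as percent of DMSO vehicle control wells.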

## C=CC(=O)N1CCN(c2nc(OCC3CCCN3C)nc3c(F)c(-c4nc(N)cc(C)c4C(F)(F)F)c(Cl)cc23)C(C)C1 (centres undefined) + C#Cc1c(F)ccc2cc(O)cc(-c3ncc4c(N5CC6CCC(C5)N6)nc(OCC56CCCN5CC(F)C6)nc4c3F)c12
Second compound 0.0316 µM
  IC50: > 1 µM
Second compound 0.1 µM
  IC50: > 1 µM
Second compound 0.316 µM
  IC50: > 1 µM
Second compound 1 µM
  IC50: > 1 µM
Second compound 3.16 µM
  IC50: > 1 µM
Second compound 10 µM
  IC50: < 0.00316 µM
Second compound 0.0316 µM, first compound 0.00316 µM
  viability, T/C: 98.1%
Second compound 0.0316 µM, first compound 0.01 µM
  viability, T/C: 94.4%
Second compound 0.0316 µM, first compound 0.0316 µM
  viability, T/C: 95.5%
Second compound 0.0316 µM, first compound 0.1 µM
  viability, T/C: 98.4%
Second compound 0.0316 µM, first compound 0.316 µM
  viability, T/C: 97.8%
Second compound 0.0316 µM, first compound 1 µM
  viability, T/C: 89.6%
Second compound 0.1 µM, first compound 0.00316 µM
  viability, T/C: 93.6%
Second compound 0.1 µM, first compound 0.01 µM
  viability, T/C: 93.1%
Second compound 0.1 µM, first compound 0.0316 µM
  viability, T/C: 97.1%
Second compound 0.1 µM, first compound 0.1 µM
  viability, T/C: 92.3%
Second compound 0.1 µM, first compound 0.316 µM
  viability, T/C: 98.7%
Second compound 0.1 µM, first compound 1 µM
  viability, T/C: 98.3%
Second compound 0.316 µM, first compound 0.00316 µM
  viability, T/C: 82.6%
Second compound 0.316 µM, first compound 0.01 µM
  viability, T/C: 78.6%
Second compound 0.316 µM, first compound 0.0316 µM
  viability, T/C: 90.9%
Second compound 0.316 µM, first compound 0.1 µM
  viability, T/C: 97.8%
Second compound 0.316 µM, first compound 0.316 µM
  viability, T/C: 89.3%
Second compound 0.316 µM, first compound 1 µM
  viability, T/C: 90.7%
Second compound 1 µM, first compound 0.00316 µM
  viability, T/C: 80.7%
Second compound 1 µM, first compound 0.01 µM
  viability, T/C: 74.4%
Second compound 1 µM, first compound 0.0316 µM
  viability, T/C: 82.7%
Second compound 1 µM, first compound 0.1 µM
  viability, T/C: 70.4%
Second compound 1 µM, first compound 0.316 µM
  viability, T/C: 82.7%
Second compound 1 µM, first compound 1 µM
  viability, T/C: 74.4%
Second compound 3.16 µM, first compound 0.00316 µM
  viability, T/C: 66.5%
Second compound 3.16 µM, first compound 0.01 µM
  viability, T/C: 69%
Second compound 3.16 µM, first compound 0.0316 µM
  viability, T/C: 71.2%
Second compound 3.16 µM, first compound 0.1 µM
  viability, T/C: 80.8%
Second compound 3.16 µM, first compound 0.316 µM
  viability, T/C: 58.1%
Second compound 3.16 µM, first compound 1 µM
  viability, T/C: 71.7%
Second compound 10 µM, first compound 0.00316 µM
  viability, T/C: 39.9%
Second compound 10 µM, first compound 0.01 µM
  viability, T/C: 48%
Second compound 10 µM, first compound 0.0316 µM
  viability, T/C: 46.7%
Second compound 10 µM, first compound 0.1 µM
  viability, T/C: 38.1%
Second compound 10 µM, first compound 0.316 µM
  viability, T/C: 49.6%
Second compound 10 µM, first compound 1 µM
  viability, T/C: 42.7%

## C[C@@H](NC(=O)c1ncnc(N)c1Cl)c1ncc(C(=O)Nc2cc(C(F)(F)F)c(Cl)cn2)s1 + CCn1c(-c2cc(N3CCN(C)CC3)cnc2C(C)OC)c2c3cc(ccc31)-c1csc(n1)CC(NC(=O)C1CC1C)C(=O)N1CCCC(N1)C(=O)OCC(C)(C)C2
Second compound 0.000949 µM
  IC50: > 10 µM
Second compound 0.003 µM
  IC50: > 10 µM
Second compound 0.00949 µM
  IC50: > 10 µM
Second compound 0.03 µM
  IC50: > 10 µM
Second compound 0.0949 µM
  IC50: > 10 µM
Second compound 0.3 µM
  IC50: 3.74 µM
Second compound 0.000949 µM, first compound 0.0316 µM
  viability, T/C: 107%
Second compound 0.000949 µM, first compound 0.1 µM
  viability, T/C: 110%
Second compound 0.000949 µM, first compound 0.316 µM
  viability, T/C: 94.3%
Second compound 0.000949 µM, first compound 1 µM
  viability, T/C: 103%
Second compound 0.000949 µM, first compound 3.16 µM
  viability, T/C: 96.1%
Second compound 0.000949 µM, first compound 10 µM
  viability, T/C: 78.5%
Second compound 0.003 µM, first compound 0.0316 µM
  viability, T/C: 106%
Second compound 0.003 µM, first compound 0.1 µM
  viability, T/C: 104%
Second compound 0.003 µM, first compound 0.316 µM
  viability, T/C: 93.3%
Second compound 0.003 µM, first compound 1 µM
  viability, T/C: 94.3%
Second compound 0.003 µM, first compound 3.16 µM
  viability, T/C: 85.6%
Second compound 0.003 µM, first compound 10 µM
  viability, T/C: 69.6%
Second compound 0.00949 µM, first compound 0.0316 µM
  viability, T/C: 94%
Second compound 0.00949 µM, first compound 0.1 µM
  viability, T/C: 100%
Second compound 0.00949 µM, first compound 0.316 µM
  viability, T/C: 95.9%
Second compound 0.00949 µM, first compound 1 µM
  viability, T/C: 96.9%
Second compound 0.00949 µM, first compound 3.16 µM
  viability, T/C: 86.3%
Second compound 0.00949 µM, first compound 10 µM
  viability, T/C: 66%
Second compound 0.03 µM, first compound 0.0316 µM
  viability, T/C: 107%
Second compound 0.03 µM, first compound 0.1 µM
  viability, T/C: 92.6%
Second compound 0.03 µM, first compound 0.316 µM
  viability, T/C: 91.7%
Second compound 0.03 µM, first compound 1 µM
  viability, T/C: 92%
Second compound 0.03 µM, first compound 3.16 µM
  viability, T/C: 78%
Second compound 0.03 µM, first compound 10 µM
  viability, T/C: 62.1%
Second compound 0.0949 µM, first compound 0.0316 µM
  viability, T/C: 79.3%
Second compound 0.0949 µM, first compound 0.1 µM
  viability, T/C: 87%
Second compound 0.0949 µM, first compound 0.316 µM
  viability, T/C: 78.7%
Second compound 0.0949 µM, first compound 1 µM
  viability, T/C: 73.7%
Second compound 0.0949 µM, first compound 3.16 µM
  viability, T/C: 76.2%
Second compound 0.0949 µM, first compound 10 µM
  viability, T/C: 62.5%
Second compound 0.3 µM, first compound 0.0316 µM
  viability, T/C: 56.6%
Second compound 0.3 µM, first compound 0.1 µM
  viability, T/C: 56.2%
Second compound 0.3 µM, first compound 0.316 µM
  viability, T/C: 58.5%
Second compound 0.3 µM, first compound 1 µM
  viability, T/C: 59.9%
Second compound 0.3 µM, first compound 3.16 µM
  viability, T/C: 72%
Second compound 0.3 µM, first compound 10 µM
  viability, T/C: 26.3%
